From patent publication US20200246284A1 (Academia Sinica, priority 2015, published 2020)
Where “and” joins values, the source holds several entries; their conditions need not be identical. Equal entries are not always repeated. Where two headings read alike, the source gives them in different places.

What was measured:
[1] = system: BCI-NSI hTERT bronchial epithelium; experiment: Cytotoxicity normal tissue 72 hr; assay type: cell-based, human; conditions: read-out: IC50
[2] = system: 16HBE SV40+ bronchial epithelium; assay type: cell-based, human
[3] = system: CL141T; assay type: cell-based, human
[4] = system: H1373; assay type: cell-based, human
[5] = system: CV1 renal fibroblasts; experiment: Cytotoxicity normal tissue 72 hr; assay type: cell-based, African green monkey (Cercopithecus aethiops)
[6] = system: H358; assay type: cell-based, human
[7] = system: H128; experiment: Cytotoxicity SCLC 72 hr alamar blue; assay type: cell-based, human
[8] = system: CALU-1; assay type: cell-based, human
[9] = system: H60; experiment: Cytotoxicity SCLC 72 hr alamar blue; assay type: cell-based, human
[10] = system: SK-LU-1; assay type: cell-based, human
[11] = system: H524; experiment: Cytotoxicity SCLC 72 hr alamar blue; assay type: cell-based, human
[12] = system: HUVEC umbilical endothelium; experiment: Cytotoxicity normal tissue 72 hr; assay type: cell-based, human
[13] = system: PC9/gefb4; assay type: cell-based, human
[14] = system: BMEC-hTert BM endothelium; assay type: cell-based, human
[15] = system: MS-5 adult BM stroma; experiment: Cytotoxicity normal tissue 72 hr; assay type: cell-based, mouse
[16] = system: HL-1 cardiomyocyte; experiment: Cytotoxicity normal tissue 72 hr; assay type: cell-based; conditions: HL-1, 72 hr
[17] = system: H1703; assay type: cell-based, human
[18] = system: H1395; assay type: cell-based, human
[19] = system: NECB1; experiment: Combination with BO-1055, MCL (Tables 28, 29); assay type: cell-based, human; conditions: read-out: IC50 single drug
[20] = system: SUDHL-6; conditions: human
Experimental: (§2) After 72 hours, the cultures were pulsed with Alamar Blue overnight, and the fluorescent intensity of resulted cultures was measured by a Synergy H1 plate-reader (BioTek Inc).

[21] = in vitro; conditions: rat, microsomes
[22] = system: SMS-CTR rhabdomyosarcoma; experiment: Cytotoxicity sarcoma; assay type: cell-based; conditions: Homo sapiens; SMS-CTR embryonal type
[23] = Pharmacokinetics, single IV 1 mg/kg or oral 10 mg/kg; assay type: in vivo, Sprague Dawley rats; conditions: for oral absorption: 10 mg/kg
Experimental: A single intravenous dose was administered via an indwelling catheter in the jugular vein to a group of 2 male rats at a dose level of 1.0 mg/kg. The formulations were prepared as a solution in 5.0% w/v DMSO with 10% w/v Cremophor in distilled water. […] The formulations were prepared as a solution in 0.5% w/v CMC in distilled water. Serial blood samples were collected from the jugular vein catheter up to 24 h post-dose from all animals in groups.

[24] = Microsome stability; conditions: rat, microsomes
[25] = system: Granta; experiment: Combination with BO-1055, MCL (Tables 28, 29); assay type: cell-based, human; conditions: read-out: IC50 single drug
[26] = system: Toledo; conditions: human
Experimental: as §2

[27] = system: H526 xenografts; experiment: SCLC H526 xenograft in NSG mice; assay type: in vivo, mouse; conditions: 30 mg/kg i.v. every second day; d30
From the text: Xenografts of GFP/Luciferase-labeled H526 were established in groups of ten NSG male mice aged 12 wks by subcutaneous injection of 50,000 tumor cells.

[28] = system: nude mice bearing prostate 22Rv/HL2 tumor xenografts; experiment: Pathological examination of organs and body weight, 22Rv/HL2 xenograft mice
[29] = system: ICR mice; experiment: Acute intravenous 14-day toxicity; conditions: for Mortality (N/N): 14 days
[30] = system: U2932; conditions: human
Experimental: as §2

[31] = system: HBL1; conditions: human
Experimental: as §2

[32] = system: REC-1; experiment: Combination with BO-1055, MCL (Tables 28, 29); assay type: cell-based, human; conditions: read-out: IC50 single drug
[33] = system: JEKO-1; experiment: Cytotoxicity mantle cell lymphoma
Experimental: as §2

[34] = Caco-2 permeability; assay type: in vitro ADME, human; conditions: human, Caco-2, 10 μM
From the text: (§1) The Caco-2 permeability assay is considered to be the industry gold standard for in vitro prediction of in vivo human intestinal permeability and bioavailability of orally administered drugs. The Caco-2 permeability assay uses an established method for predicting the absorption of therapeutic compounds across the GIT by measuring the rate of transport across a contiguous Caco-2 cell monolayer. […] The Caco-2 assay measures the passage of a test compound from a donor chamber into an acceptor chamber through a porous membrane on which a confluent Caco-2 monolayer forms a cellular barrier.

[35] = system: Caco-2 cell monolayers; experiment: Caco-2 permeability; assay type: in vitro ADME, human
From the text: as §1

In the case of `N.N.[Cl][Pt][Cl]` [Cisplatin], the IC50 [1] is reported as 30 µM, the IC50 [2] is reported as 3.6 µM and the IC50 [3] is reported as 2450 nM. It also gave an IC50 [4] of 9.46 µM, an IC50 ([5]; read-out: IC50) of 97.9 µM and an IC50 [6] of 5.9 µM. For the same molecule, the IC50 [7] was 4.79 µM, the IC50 [8] was ≥ 20 µM and the IC50 [9] was 2090 nM. The IC50 [10] was 6.94 µM, the IC50 [11] was 410 nM and the IC50 ([12]; read-out: IC50) was 50 µM. For the same molecule, the IC50 [13] was ≥ 35 µM, the IC50 ([14]; read-out: IC50) was 20 µM and the IC50 ([15]; read-out: IC50) was 22 µM. The IC50 [16] was 47 µM, the IC50 [17] was ≥ 20 µM and the IC50 [18] was ≥ 15 µM.

In the case of `CN(C)CCNC(=O)c1cccc(NC(=O)Nc2ccc(N(CCCl)CCCl)cc2)c1` [BO-1055, Ureidomustine], the IC50 [19] is reported as 7.42 µM and 7.78 µM and 8.52 µM, the IC50 [20] is reported as 5.93 µM and the IC50 ([5]; Chlorocebus sabaeus, Fibroblast, 72 h) is reported as > 100 µM. The half-life [21] was 29.7 min, the IC50 [22] was 10 µM and the “AUC (0-last)” value ([23]; IV 1 mg/kg, rat) was 925.81 ng·h/mL. The “AUC (0-∞)” value ([23]; IV 1 mg/kg, rat) was 934.93 ng·h/mL, the CLss ([23]; IV 1 mg/kg, rat) was 18.00 mL/min/kg and the Vss ([23]; IV 1 mg/kg, rat) was 0.15 L/kg. For the same molecule, the t1/2 ([23]; IV 1 mg/kg, rat) was 34.8 min, the C0 ([23]; male, Sprague Dawley, plasma, IV 1 mg/kg, rat) was 12000 ng/mL and the “plasma levels after oral administration” value ([23]; oral 10 mg/kg, LLOQ […]) was “No quantifiable levels”. The oral absorption ([23]; oral 10 mg/kg, rat) was “no oral absorption”, the oral absorption ([23]; oral 10 mg/kg, rat, listed as ureidomustine) was “No Oral Absorption” and the intrinsic clearance [24] was “High intrinsic clearance”. The IC50 [12] was 50 µM, the IC50 [25] was 5.26 µM and 5.5 µM and 6.55 µM and the IC50 [26] was 8.95 µM. For the same molecule, the tumor-free mice [27] was 3/5, the average body-weight ([28]; after cessation of treatment) was “recovered on day 35-40” and the “pathological change in heart, liver, spleen, lung and kidney” value ([28]; day 42 after onset of drug administration) was “no apparent pathological change”. For the same molecule, the “Post dosing deaths at >1 hr” value ([29]; 50 mg/kg) was 0, the “Mortality (N/N)” value ([29]; 50 mg/kg i.v.) was 0/6 and the “Post dosing deaths at >1 hr” value ([29]; 60 mg/kg) was 0. The “Mortality (N/N)” value ([29]; 60 mg/kg i.v.) was 0/6, the “Post dosing deaths at >1 hr” value ([29]; 70 mg/kg) was 1 and the “Mortality (N/N)” value ([29]; 70 mg/kg i.v.) was 1/6. For the same molecule, the “Post dosing deaths at >1 hr” value ([29]; 80 mg/kg) was 6, the “Mortality (N/N)” value ([29]; 80 mg/kg i.v.) was “all mice died and 6/6” and the “Post dosing deaths at >1 hr” value ([29]; 100 mg/kg) was 6. The “Mortality (N/N)” value ([29]; 100 mg/kg i.v.) was 6/6, the IC50 [30] was 2220 nM and the IC50 ([14]; BMEC-hTert, 72 hr) was ≥ 10 µM. The IC50 [31] was 870 nM, the IC50 [32] was 17.7 µM and 12.5 µM and 19.3 µM and the IC50 ([15]; MS-5 (mouse), 72 hr) was ≥ 10 µM. The IC50 [33] was 270 nM, the Papp B→A at 10 μM [34] was 7.05 ×10⁻⁶ cm/s and the “Papp (B to A)” value ([35]; 10 μM) was “Papp (B to A) = 7.5 × 10−6 cm/sec”. The mass balance ([35]; A→B and B→A directions) was < 50% and the “Papp coefficient A→B” value ([35]; Caco-2) was “not detected”.
